The values that follow come from publication PMC9502272, “A Metabolomics Approach for Predicting OATP1B-Type Transporter-Mediated Drug–Drug Interaction Liabilities” (Pharmaceutics, 2022).

Where two headings read alike, the source gives them in different places.

Data set [1] concerns OATP1B. Description: Clinical study: OATP1B biomarkers in patients receiving cabazitaxel. In kind it is in vivo, human. As to conditions: cabazitaxel 1 h i.v. infusion up to 25 mg/m^2.
Source text: Samples from patients with solid tumors were collected from 3 clinical studies conducted in accordance with the principles of the Declaration of Helsinki, and all study protocols were approved by Institutional Review Boards at either the National Cancer Institute (Bethesda, MD, USA) or the Erasmus Medical Center Cancer Institute (Rotterdam, The Netherlands). All patients provided written informed consent for their blood samples and medical information to be used for research purposes.
An Accucore aQ column (50 × 2.1 mm, dp = 2.6 μm; Thermo Fisher Scientific) was protected by a C18 AQUASIL guard cartridge (2.1 mm × 10 mm, dp = 3 μm; Thermo Fisher Scientific). The injection volume of sample was 5.0 μL. The temperature of the autosampler rack was 4 °C, and the temperature of the column was maintained at 20 °C. The mobile phase was composed of solvent A (2 mmol ammonium acetate in water) and solvent B (100% methanol), and the total run time was 4.6 min. The gradient conditions were as follows: 0–0.5 min, 45% B; 0.5–2.0 min, 45 to 90%, 2.0–4.0 min, 90% B; 4.0–4.6 min, 45% B, delivered at a flow rate of 0.4 mL/min. The MS assay setting with the positive voltage applied to the ESI capillary was set at 3791 V, and the capillary temperatures was 335 °C with a vaporizer temperature of 350 °C. […] The lower limit of quantitation (LLOQ) for both analytes was determined to be 0.5 ng/mL. […]
On the set-up of data set [2]: method as in ref PMIDs of Table S2 (18321482, 35456528, 28612269, 10997930, 27796539, 23299792, 11129729, 22808947, 12844327). As to conditions: ref PMIDs of Table S2 (18321482, 35456528, 28612269, 10997930, 27796539, 23299792, 11129729, 22808947, 12844327); cited from earlier work.
The target of data set [3] is T1, OATP1B-type transporters (Oatp1b2) (Mus musculus, UniProt Q9JJL3).
T1 construct: was performed in wild-type mice and Oatp1b2(−/−) mice; from tissue; host or cells: living wild-type mice (DBA/1LacJ or FVB background); hepatic transporter in vivo
T1 sequence (Q9JJL3 1-689): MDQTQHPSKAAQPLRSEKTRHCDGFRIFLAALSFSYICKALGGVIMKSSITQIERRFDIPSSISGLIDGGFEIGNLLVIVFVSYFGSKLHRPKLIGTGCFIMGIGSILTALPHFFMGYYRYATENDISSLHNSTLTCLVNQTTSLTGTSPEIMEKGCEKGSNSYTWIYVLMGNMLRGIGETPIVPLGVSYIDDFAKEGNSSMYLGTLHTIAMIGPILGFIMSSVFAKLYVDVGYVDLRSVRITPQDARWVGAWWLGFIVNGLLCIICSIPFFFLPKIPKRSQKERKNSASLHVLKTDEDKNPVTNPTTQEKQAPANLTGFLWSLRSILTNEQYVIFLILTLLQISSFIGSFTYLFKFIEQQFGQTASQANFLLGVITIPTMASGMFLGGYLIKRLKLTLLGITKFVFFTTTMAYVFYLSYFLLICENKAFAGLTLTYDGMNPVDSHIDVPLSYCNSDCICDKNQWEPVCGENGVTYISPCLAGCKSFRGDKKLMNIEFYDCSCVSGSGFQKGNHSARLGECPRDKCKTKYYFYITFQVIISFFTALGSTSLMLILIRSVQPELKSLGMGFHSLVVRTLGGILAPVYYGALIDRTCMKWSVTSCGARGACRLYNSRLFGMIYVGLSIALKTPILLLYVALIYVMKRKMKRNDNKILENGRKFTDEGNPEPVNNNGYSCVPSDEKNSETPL
Put plainly: Murine pharmacokinetic study: influence of OATP1B inhibitors on plasma CDCA-24G in wild-type mice. In kind it is in vivo. As to conditions: rifampin 20 mg/kg i.v. or paclitaxel 10 mg/kg i.v.
Procedure: In these experiments, serial whole blood samples were collected in heparinized tubes immediately prior to drug administration (pre-dose) and at 0.25, 0.5, 1, 2, and 4 h after administration from the submandibular vein for the initial three time-points, from the retro-orbital sinus vein for the subsequent two time-points, and by cardiac puncture at the terminal time-point. Whole blood samples were centrifuged at 11,000 rpm for 5 min; then, the plasma supernatants were collected and stored at −80 °C until analysis by a validated method based on LC-MS/MS.
An Accucore aQ column (50 × 2.1 mm, dp = 2.6 μm; Thermo Fisher Scientific) was protected by a C18 AQUASIL guard cartridge (2.1 mm × 10 mm, dp = 3 μm; Thermo Fisher Scientific). The injection volume of sample was 5.0 μL. The temperature of the autosampler rack was 4 °C, and the temperature of the column was maintained at 20 °C. The mobile phase was composed of solvent A (2 mmol ammonium acetate in water) and solvent B (100% methanol), and the total run time was 4.6 min. […]
(§1) Pharmacokinetic parameters were derived from non-compartmental analysis using Phoenix WinNonlin version 8.0 (Certara, Princeton, NJ, USA). The peak plasma concentration (Cmax) was determined by visual inspection of the data from the concentration–time curves. […]

For another data set, the system named is OATP1B3. On the set-up: method as in ref PMIDs of Table S2 (18321482, 35456528, 28612269, 10997930, 11129729, 22808947, 12844327). To be noted: ref PMIDs of Table S2 (18321482, 35456528, 28612269, 10997930, 11129729, 22808947, 12844327); cited from earlier work.
In data set [4] the test system is OATP1B. To be noted: patients, paclitaxel (Taxol) 1 h i.v. infusion, 50 or 100 mg/m^2; dose-dependent.
Procedure: An Accucore aQ column (50 × 2.1 mm, dp = 2.6 μm; Thermo Fisher Scientific) was protected by a C18 AQUASIL guard cartridge (2.1 mm × 10 mm, dp = 3 μm; Thermo Fisher Scientific). The injection volume of sample was 5.0 μL. The temperature of the autosampler rack was 4 °C, and the temperature of the column was maintained at 20 °C. The mobile phase was composed of solvent A (2 mmol ammonium acetate in water) and solvent B (100% methanol), and the total run time was 4.6 min. The gradient conditions were as follows: 0–0.5 min, 45% B; 0.5–2.0 min, 45 to 90%, 2.0–4.0 min, 90% B; 4.0–4.6 min, 45% B, delivered at a flow rate of 0.4 mL/min. The MS assay setting with the positive voltage applied to the ESI capillary was set at 3791 V, and the capillary temperatures was 335 °C with a vaporizer temperature of 350 °C. Argon was used as the collision gas at a pressure of 1.5 mTorr. […] The lower limit of quantitation (LLOQ) for both analytes was determined to be 0.5 ng/mL. […]
as §1
For a further data set, the target named is T2, OATP1B1 (Homo sapiens, UniProt Q9Y6L6).
T2 construct: expressed in transfected cells; host or cells: HEK293 (ATCC)
T2 sequence (Q9Y6L6 1-691): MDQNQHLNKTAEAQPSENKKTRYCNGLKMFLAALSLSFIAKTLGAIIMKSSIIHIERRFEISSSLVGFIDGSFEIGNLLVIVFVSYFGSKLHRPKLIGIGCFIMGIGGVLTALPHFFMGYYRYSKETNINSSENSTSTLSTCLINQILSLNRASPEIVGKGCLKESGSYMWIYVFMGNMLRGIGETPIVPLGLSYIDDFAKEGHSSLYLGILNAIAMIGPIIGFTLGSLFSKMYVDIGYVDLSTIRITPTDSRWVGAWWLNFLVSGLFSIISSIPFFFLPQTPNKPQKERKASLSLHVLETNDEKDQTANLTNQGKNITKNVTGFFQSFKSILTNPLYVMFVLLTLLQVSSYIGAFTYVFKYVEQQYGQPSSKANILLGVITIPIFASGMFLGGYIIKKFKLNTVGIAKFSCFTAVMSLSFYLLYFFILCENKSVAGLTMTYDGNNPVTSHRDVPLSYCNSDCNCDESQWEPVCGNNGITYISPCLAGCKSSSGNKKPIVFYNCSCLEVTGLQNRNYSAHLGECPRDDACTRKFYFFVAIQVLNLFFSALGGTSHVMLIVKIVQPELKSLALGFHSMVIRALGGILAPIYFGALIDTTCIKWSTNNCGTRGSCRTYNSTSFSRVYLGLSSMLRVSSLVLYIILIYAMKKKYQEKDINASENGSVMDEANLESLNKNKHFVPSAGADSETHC
On the set-up: method as in ref PMIDs of Table S2 (18321482, 35456528, 28612269, 10997930, 11129729, 22808947, 12844327). To be noted: ref PMIDs of Table S2 (18321482, 35456528, 28612269, 10997930, 11129729, 22808947, 12844327); cited from earlier work.

For data set [5], the target named is T3, Oatp1b2 (Mus musculus, UniProt Q9JJL3).
T3 sequence (Q9JJL3 1-689): T1 sequence (Q9JJL3 1-689)
To be noted: in vivo.

For the next data set, the system named is Oatp1a/1b. Description: Baseline plasma biomarker levels in Oatp1a/1b(−/−) cluster-knockout vs wild-type mice. The data set is classed as in vivo, mouse. How it is done: Plasma concentrations of levels of CDCA-24G and glycochenodeoxycholate-3-sulfate (GCDCA-S) were determined using LC-MS/MS using a Vanquish UHPLC coupled with a Quantiva triple quadrupole mass spectrometer (Thermo Fisher Scientific, Waltham, MA, USA). An Accucore aQ column (50 × 2.1 mm, dp = 2.6 μm; Thermo Fisher Scientific) was protected by a C18 AQUASIL guard cartridge (2.1 mm × 10 mm, dp = 3 μm; Thermo Fisher Scientific). The injection volume of sample was 5.0 μL. The temperature of the autosampler rack was 4 °C, and the temperature of the column was maintained at 20 °C. The mobile phase was composed of solvent A (2 mmol ammonium acetate in water) and solvent B (100% methanol), and the total run time was 4.6 min. The gradient conditions were as follows: 0–0.5 min, 45% B; 0.5–2.0 min, 45 to 90%, 2.0–4.0 min, 90% B; 4.0–4.6 min, 45% B, delivered at a flow rate of 0.4 mL/min. The MS assay setting with the positive voltage applied to the ESI capillary was set at 3791 V, and the capillary temperatures was 335 °C with a vaporizer temperature of 350 °C. Argon was used as the collision gas at a pressure of 1.5 mTorr. Precursor molecular ions, and product ions were recorded for the confirmation and detection of GCDCA-S (528.4 > 448.3) and CDCA-24G (567.4 > 391.1), using [^2H5]-GCDCA-S (535.5 > 453.3) and [^2H5]-CDCA-24G (572.5 > 396.1) as respective internal standards. The lower limit of quantitation (LLOQ) for both analytes was determined to be 0.5 ng/mL. […]
Plasma concentrations of coproporphyrin I (CP-I) and III (CP-III) were determined similarly by LC-MS/MS. […] Precursor molecular ions and product ions were recorded for confirmation and detection of CP-I (655.4 > 596.4) and CP-III (655.4 > 596.3), using [^2H4]-CP-III (659.4 > 600.3) as the internal standard for both analytes. The LLOQ for both analytes were determined to be 1 ng/mL, and the within-run and between-run precisions as well as the accuracy were always within acceptable limits.

The target of data set [6] is T3, Oatp1b2. Description: Untargeted metabolomics of plasma from untreated wild-type and Oatp1b2(−/−) mice. To be noted: for Fold of Change KO/WT: plasma of untreated Oatp1b2-deficient (KO) vs wild-type (WT) mice, semi-quantitative, positive = higher in KO, n = 6 per group; for Mean value KO: plasma of untreated Oatp1b2-deficient mice; for Mean value KO / Mean value WT: raw area counts rescaled to median = 1; for Mean value WT: plasma of untreated wild-type mice.

In the case of `CO[C@H]1C(=O)[C@]2(C)[C@@H](OC)C[C@H]3OC[C@@]3(OC(C)=O)[C@H]2[C@H](OC(=O)c2ccccc2)[C@]2(O)C[C@H](OC(=O)[C@H](O)[C@@H](NC(=O)OC(C)(C)C)c3ccccc3)C(C)=C1C2(C)C` [Cabazitaxel, cabazitaxel], in the data set with OATP1B [1], the “Effect on plasma levels of CDCA-24G” value is listed as “not associated with elevated plasma levels” and the “Effect on plasma levels of GCDCA-S” value is recorded as “not associated with elevated plasma levels”. Besides, the Cmax (commonly the peak of the concentration-time curve) in [2] was 0.193 µM.
As for `CC(=O)O[C@H]1C(=O)[C@@]2(C)[C@H]([C@H](OC(=O)c3ccccc3)[C@]3(O)C[C@H](OC(=O)[C@H](O)[C@@H](NC(=O)c4ccccc4)c4ccccc4)C(C)=C1C3(C)C)[C@]1(OC(C)=O)CO[C@@H]1C[C@@H]2O` [Paclitaxel, paclitaxel], the maximum concentration (Cmax) in data set [2] was 9.6 µM. Also, the “Effect on circulating levels of CDCA-24G” value in data set [3] is recorded as “transient, statistically significant increase”. Further, the IC50 – broadly, the concentration needed to halve the response being measured – with OATP1B3 is 500 nM. The “Effect on plasma levels of CDCA-24G” value in the data set with OATP1B [4] was “elevated”.
With `CO[C@H]1/C=C/O[C@@]2(C)Oc3c(C)c(O)c4c(O)c(c(/C=N/N5CCN(C)CC5)c(O)c4c3C2=O)NC(=O)/C(C)=C\C=C\[C@H](C)[C@H](O)[C@@H](C)[C@@H](O)[C@@H](C)[C@H](OC(C)=O)[C@@H]1C` [Rifampin, rifampin], the Cmax in data set [2] was 29 µM. The “Effect on circulating levels of CDCA-24G” value in data set [3] was “transient, statistically significant increase”. Moreover, the IC50 at OATP1B1 was 1500 nM; with OATP1B3, 2600 nM.
In the case of `C[N+](C)(C)[C@@H](Cc1cnc[nH]1)C(=O)[O-]` [histidine betaine (hercynine)], on Oatp1b2 [5], the “Fold of Change KO/WT” value was 1.31, the “Mean value KO” value is given as 1.09 and the “Mean value WT” value is recorded as “.830”.
Turning to coproporphyrin I [CP-I], in the data set with Oatp1a/1b, the “Observed changes in plasma levels in Oatp1a/1b(−/−), OATP1B1(tg) or OATP1B3(tg) mice vs wild type, compared with CDCA-24G” value is “much more modest”.
For the molecule coproporphyrin III [CP-III], the “Observed changes in plasma levels in Oatp1a/1b(−/−), OATP1B1(tg) or OATP1B3(tg) mice vs wild type, compared with CDCA-24G” value in the data set with Oatp1a/1b is recorded as “much more modest”.
Take sphingomyelin (d17:1/14:0, d16:1/15:0): at Oatp1b2 [6], the “Fold of Change KO/WT” value worked out at 1.32, the “Mean value KO” value is reported as 1.02 and the “Mean value WT” value is “.769”.
As to sphingomyelin (d18:1/14:0, d16:1/16:0), the “Mean value WT” value on Oatp1b2 [6] is “.930”.
sphingomyelin (d18:2/14:0, d18:1/14:1): on Oatp1b2 [6], the “Fold of Change KO/WT” value is on record as 1.36, the “Mean value KO” value was found to be 1.14 and the “Mean value WT” value is given as “.839”.
On to sphingomyelin (d18:2/16:0, d18:1/16:1), for which the “Mean value WT” value at Oatp1b2 [6] is given as “.940”.
With taurocholenate sulfate, on Oatp1b2 [6], the “Mean value KO” value is listed as 1.08 and the “Mean value WT” value is recorded as “.838”.
In the case of tauroursodeoxycholic acid sulfate (2), on Oatp1b2 [6], the “Fold of Change KO/WT” value turned out to be 2.18, the “Mean value KO” value stood at 1.12 and the “Mean value WT” value was “.513”.
tetradecadienedioate (C14:2-DC): on Oatp1b2 [6], the “Fold of Change KO/WT” value is recorded as 2.09, the “Mean value KO” value was determined as 1.58 and the “Mean value WT” value was “.756”.
